Data: patent US12220440B2, “Drug composition, method for treating infection, disinfecting composition, and drug adjuvant” (priority 2022, dated 2025)
In brackets after ≈: the same amount, converted by molar mass. Where two headings read alike, the source gives them in different places. Peptide text beside a SMILES is read from it.

How the values were obtained:
Format in all cases: cell-based
E. coli J53 [1] = assay: MIC checkerboard dilution assay, otilonium bromide vs. colistin; details: Escherichia coli
mcr-1-bearing E. coli [2] = details: colistin 32 μg/ml for 24 hours; initial ~10^8 CFU/mL in saline
Description: Starvation-induced bacterial sub-population tolerant cells of colistin-resistant and colistin-susceptible E. coli and A. baumannii strains are tested against the bactericidal effect of the combination of otilonium bromide and colistin. […] The incubation temperature is 37° C. Ob and colistin are added at the same time.

[3] = test system: A. baumannii (colistin-resistant); assay: MIC, colistin-resistant A. baumannii isolates, with and without otilonium bromide; details: for MIC: Acinetobacter baumannii
[4] = test system: mcr-1-bearing E. coli J53; assay: Ca2+ / Mg2+ MIC-dependency in cation-supplemented MHB; details: 37° C., 16 hours
Description: Accordingly, the effect of divalent ions on the antibacterial activity of otilonium bromide and colistin is investigated. […] For FIGS. 5a-5b, E. coli J53 expressing MCR-1 is treated with colistin and colistin+Ob as indicated in Mueller Hinton II Broth (MHB) that is cation-adjusted; i.e., supplemented with different concentrations of Mg^2+ and Ca^2+ ions). The incubation is conducted at 37° C. for 16 hours.

[5] = test system: mcr-1-bearing E. coli J53; assay: SYTOX Green membrane permeability staining; details: each drug individually
Description: SYTOX™ Green (available from ThermoFisher Scientific) staining analysis assesses the membrane permeability of colistin-resistant E. coli before and after treatment with the colistin and otilonium bromide combination. SYTOX Green is a green-fluorescent nucleotide dye used to test membrane permeability and membrane integrity. Green fluorescence is detected by fluorescence spectrometer when bacterial cell integrity is destroyed and membrane permeability increases.

E. coli Bw25113 = assay: MIC, colistin-susceptible E. coli, with and without otilonium bromide; details: Escherichia coli
mcr-1-bearing E. coli [6] = assay: LIVE/DEAD cell viability assay, fluorescence microscopy; details: 8 μg/ml of colistin alone
Description: Fluorescence microscopy quantifies the number of live and dead cells and determines the degree of reduction in colistin concentration in the drug combination required for effective eradication of the test organism. […] However, in the presence of 20 μg/ml of otilonium bromide, 4 μg/ml of colistin eradicates >97% of the bacteria.

E. coli J53 [7] = assay: Ca2+ / Mg2+ MIC-dependency in cation-supplemented MHB; details: 37° C., 16 hours
Description: For FIGS. 5c-5d, colistin-susceptible E. coli J53 is treated with colistin and colistin+Ob as indicated in MHB supplemented with different concentrations of Mg^2+ and Ca^2+ ions. The incubation is conducted at 37° C. for 16 hours.
Accordingly, it is believed that the addition of a chelant; or a chelant for divalent ions; or a divalent cation chelant, may further improve the activity of the drug formulation, method of use/treatment, disinfection composition, etc. of the present invention.

[8] = test system: E. coli (colistin-resistant); assay: MIC, colistin-resistant E. coli clinical isolates, with and without otilonium bromide; details: Escherichia coli

**Q.** `CCC(C)CCCC(=O)N[C@@H](CCN)C(=O)N[C@H](C(=O)N[C@@H](CCN)C(=O)N[C@H]1CCNC(=O)[C@H]([C@@H](C)O)NC(=O)[C@H](CCN)NC(=O)[C@H](CCN)NC(=O)[C@H](CC(C)C)NC(=O)[C@@H](CC(C)C)NC(=O)[C@H](CCN)NC1=O)[C@@H](C)O` (stereo partly drawn) [Colistin] (HELM PEPTIDE1{[CCC(C)CCCC(=O)[*:2]].[Dab].T.[Dab].[Dab].[Dab].[dL].L.[Dab].[Dab].T}$PEPTIDE1,PEPTIDE1,5:R3-11:R2$$$V2.0) was tested. Which MIC (E. coli J53 [1]; 10 μg/ml of otilonium bromide) did it give?
**A.** ≤ 0.016 µg/mL

**Q.** What about the MIC (E. coli J53 [1]; colistin alone) of the same compound?
**A.** 1 µg/mL

**Q.** And the “size of the viable tolerant population” value (mcr-1-bearing E. coli [2])?
**A.** 5*10^5 CFU/ml

**Q.** What about the “Colistin MIC, Colistin” value ([3]; A. baumannii ABJZ-46, colistin-resistant, colistin alone) of the same compound?
**A.** 4 µg/mL

**Q.** And the “Colistin MIC, Colistin” value ([3]; A. baumannii ABJZ-50, colistin-resistant, colistin alone)?
**A.** 4 µg/mL

**Q.** What about the “Colistin MIC, Colistin” value ([3]; A. baumannii ABJZ-72, colistin-resistant, colistin alone) of the same compound?
**A.** 4 µg/mL

**Q.** And the MIC ([3]; ATCC17978, read-out: Colistin MIC, Colistin + 10 ug/ml Ob, A. baumannii ATCC17978, colistin-resistant, in the presence of 10 ug/ml Ob)?
**A.** 0.125 µg/mL

**Q.** And the MIC ([3]; read-out: Colistin MIC, Colistin + 10 ug/ml Ob, A. baumannii ABJZ-45, colistin-resistant, in the presence of 10 ug/ml Ob)?
**A.** 0.0625 µg/mL

**Q.** And the MIC ([3]; read-out: Colistin MIC, Colistin + 10 ug/ml Ob, A. baumannii ABJZ-46, colistin-resistant, in the presence of 10 ug/ml Ob)?
**A.** 0.5 µg/mL

**Q.** What about the MIC ([3]; read-out: Colistin MIC, Colistin + 10 ug/ml Ob, A. baumannii ABJZ-50, colistin-resistant, in the presence of 10 ug/ml Ob) of the same compound?
**A.** 0.25 µg/mL

**Q.** What about the MIC ([3]; read-out: Colistin MIC, Colistin + 10 ug/ml Ob, A. baumannii ABJZ-72, colistin-resistant, in the presence of 10 ug/ml Ob) of the same compound?
**A.** 0.125 µg/mL

**Q.** And the MIC ([3]; A. baumannii ABJZ-45, colistin-resistant, colistin alone, read-out: Colistin MIC, Colistin)?
**A.** 4 µg/mL (≈ 3.46 µM)

**Q.** What about the MIC ([3]; A. baumannii ATCC17978, colistin-resistant, colistin alone, read-out: Colistin MIC, Colistin) of the same compound?
**A.** 4 µg/mL (≈ 3.46 µM)

**Q.** And the “effect of supplemented Ca2+ and Mg2+ on MIC” value [4]?
**A.** increase the MIC

**Q.** And the “SYTOX Green fluorescence (membrane permeability)” value [5]?
**A.** significant increase in fluorescence

**Q.** And the MIC (E. coli Bw25113; colistin alone, read-out: Colistin MIC, Colistin)?
**A.** 2 µg/mL (≈ 1.73 µM)

**Q.** What about the MIC (E. coli Bw25113; in the presence of 10 ug/ml Ob, read-out: Colistin MIC, Colistin + 10 ug/ml Ob) of the same compound?
**A.** 0.03 µg/mL

**Q.** And the MIC (E. coli Bw25113; in the presence of 20 ug/ml Ob, read-out: Colistin MIC, Colistin + 20 ug/ml Ob)?
**A.** ≤ 0.015 µg/mL

**Q.** What about the “live/dead state of cells” value (mcr-1-bearing E. coli [6]) of the same compound?
**A.** most or all mcr-1-bearing E. coli strains were alive

**Q.** And the “effect of supplemented Ca2+ and Mg2+ on MIC” value (E. coli J53 [7])?
**A.** increase the MIC

**Q.** And the MIC ([8]; E. coli 5, colistin-resistant, colistin alone, read-out: Colistin MIC, Colistin)?
**A.** 8 µg/mL (≈ 6.92 µM)

**Q.** And the MIC ([8]; E. coli 5, colistin-resistant, in the presence of 10 ug/ml Ob, read-out: Colistin MIC, Colistin + 10 ug/ml Ob)?
**A.** 4 µg/mL

**Q.** And the MIC ([8]; E. coli 5, colistin-resistant, in the presence of 20 ug/ml Ob, read-out: Colistin MIC, Colistin + 20 ug/ml Ob)?
**A.** ≤ 0.25 µg/mL

**Q.** And the MIC ([8]; E. coli 12.12.0487, colistin-resistant, colistin alone, read-out: Colistin MIC, Colistin)?
**A.** 8 µg/mL (≈ 6.92 µM)

**Q.** What about the MIC ([8]; E. coli 12.12.0487, colistin-resistant, in the presence of 10 ug/ml Ob, read-out: Colistin MIC, Colistin + 10 ug/ml Ob) of the same compound?
**A.** 2 µg/mL

**Q.** What about the MIC ([8]; E. coli 12.12.0487, colistin-resistant, in the presence of 20 ug/ml Ob, read-out: Colistin MIC, Colistin + 20 ug/ml Ob) of the same compound?
**A.** 0.5 µg/mL

**Q.** What about the MIC ([8]; E. coli 101, colistin-resistant, colistin alone, read-out: Colistin MIC, Colistin) of the same compound?
**A.** 8 µg/mL (≈ 6.92 µM)

**Q.** And the MIC ([8]; E. coli 101, colistin-resistant, in the presence of 10 ug/ml Ob, read-out: Colistin MIC, Colistin + 10 ug/ml Ob)?
**A.** 4 µg/mL

**Q.** What about the MIC ([8]; E. coli 101, colistin-resistant, in the presence of 20 ug/ml Ob, read-out: Colistin MIC, Colistin + 20 ug/ml Ob) of the same compound?
**A.** 1 µg/mL

**Q.** And the MIC ([8]; E. coli 119, colistin-resistant, colistin alone, read-out: Colistin MIC, Colistin)?
**A.** 16 µg/mL (≈ 13.8 µM)

**Q.** What about the MIC ([8]; E. coli 119, colistin-resistant, in the presence of 10 ug/ml Ob, read-out: Colistin MIC, Colistin + 10 ug/ml Ob) of the same compound?
**A.** 4 µg/mL

**Q.** And the MIC ([8]; E. coli 119, colistin-resistant, in the presence of 20 ug/ml Ob, read-out: Colistin MIC, Colistin + 20 ug/ml Ob)?
**A.** 2 µg/mL

**Q.** And the MIC ([8]; E. coli 812, colistin-resistant, colistin alone, read-out: Colistin MIC, Colistin)?
**A.** 16 µg/mL (≈ 13.8 µM)

**Q.** What about the MIC ([8]; E. coli 812, colistin-resistant, in the presence of 10 ug/ml Ob, read-out: Colistin MIC, Colistin + 10 ug/ml Ob) of the same compound?
**A.** 4 µg/mL

**Q.** What about the MIC ([8]; E. coli 812, colistin-resistant, in the presence of 20 ug/ml Ob, read-out: Colistin MIC, Colistin + 20 ug/ml Ob) of the same compound?
**A.** 1 µg/mL

**Q.** What about the MIC ([8]; E. coli 2016.2.5 1149-1, colistin-resistant, colistin alone, read-out: Colistin MIC, Colistin) of the same compound?
**A.** 8 µg/mL (≈ 6.92 µM)

**Q.** And the MIC ([8]; E. coli 2016.2.5 1149-1, colistin-resistant, in the presence of 10 ug/ml Ob, read-out: Colistin MIC, Colistin + 10 ug/ml Ob)?
**A.** 4 µg/mL

**Q.** And the MIC ([8]; E. coli 2016.2.5 1149-1, colistin-resistant, in the presence of 20 ug/ml Ob, read-out: Colistin MIC, Colistin + 20 ug/ml Ob)?
**A.** 1 µg/mL
